Consider two compounds from ChEMBL document CHEMBL1149019, “Antineoplastic agents, 120. Pancratium littorale” (1986).

In brackets after ≈: the same amount, converted by molar mass.

What all share (type): functional
The nature of assay [1]: Cytotoxicity against mouse 9PS cells. The settings on record: read-out: ED50 (the source's name).
In assay [2] the test system is P388. Kind of assay: In vivo cytotoxicity against mouse P388 cells at 25 mg/kg relative to control.
Assay [3] relates to P388. Kind of assay: In vivo cytotoxicity against mouse P388 cells at 12.5 mg/kg relative to control.
For assay [4], the system named is M5076. Kind of assay: In vivo antitumor activity against mouse M5076 cells assessed as life extension at 0.38 to 3 mg/kg. The settings on record: dose mg/kg 0.38-3.
The test system of assay [5] is P388. The assay can be described thus: In vivo antitumor activity against mouse P388 cells assessed as life extension at 0.75 to 12.5 mg/kg. The settings on record: dose mg/kg 0.75-12.5.
Assay [6] concerns M5076. The assay can be described thus: In vivo cytotoxicity against mouse M5076 cells at 0.38 to 3 mg/kg relative to control. The settings on record: dose mg/kg 0.38-3.
The subject of assay [7] is P388. The assay can be described thus: In vivo cytotoxicity against mouse P388 cells at 0.75 to 6 mg/kg relative to control. The settings on record: dose mg/kg 0.75-6.

On to `O=C1N[C@@H]2C(=C[C@H](O)[C@@H](O)[C@H]2O)c2cc3c(cc21)OCO3`, for which, in assay [1], the EC50 was 0.02 µg/mL (≈ 0.0687 µM). In addition, the T/C in the assay on P388 [2] and with P388 [3] was 161 throughout.
Take `O=C1N[C@H]2[C@H](O)[C@H](O)[C@@H](O)[C@H](O)[C@@H]2c2cc3c(c(O)c21)OCO3` [PANCRATISTATIN]: the EC50 in assay [1] stood at 0.01 µg/mL (≈ 0.0307 µM). Also, the Activity with M5076 [4] was 53%; in the assay on P388 [5], 38%. The T/C turned out to be 153 in the assay on M5076 [6], 206 in the assay with P388 [3] and 138 in the assay with P388 [7].
